In general, melting point refers to the temperature of the solid-liquid transition.

For the compound `O=C1c2ccccc2C(=O)N1Cc1noc(-c2ncn3c2[C@@H]2CCN2C(=O)c2cc(F)ccc2-3)n1`, the melting point was 287 to 288 °C. As to `O=C(Oc1ccc(OC(=O)c2ccccc2)c(-c2ccccc2)c1)c1cc(O)c(O)c(O)c1`, the melting point lay within 82 to 84 °C.

In turn, `COc1ccc(C(=O)CC2CCCN(C)C2)cc1` (stereo not drawn) returned a melting point of 89 to 92 °C.

In turn, `N#CC(Cl)Cc1ccc(Cl)cc1C(=O)c1ccccc1` (stereo not drawn) displayed a melting point of 69 to 71 °C. `Cc1cc2c(cc1Br)N1CCc3cccc(c31)C(N1CCN(C)CC1)=N2`: the melting point turned out to be 177 °C. The compound `Cc1ccc(S(=O)(=O)Nc2ccc([N+](=O)[O-])cc2Cl)cc1` gave a melting point of 167 to 168 °C.

Compound `O=C1c2c(O)ccc(O)c2C(=O)c2c(NCCN3CCCC3)ccc(NCCN3CCCC3)c21` displayed a melting point of 193 to 196 °C.

Regarding `O=C1CCC(c2ccc(CCCN3CCN(c4ccccc4)CC3)cc2)N1` (stereo not drawn), the melting point came out at 130 °C.

`Cc1ccc(NC(=O)c2ccc(CN3C[C@@H](C)N[C@@H](C)C3)c(Br)c2)cc1Nc1nccc(-c2cccnc2)n1` yielded a melting point of 204 to 205 °C. Regarding `O=C(Nc1cccc(O)c1)C(=O)N1CCC(Cc2ccc(F)cc2)CC1`, the melting point lay in the range of 175 to 179 °C.

In turn, `CC(C)(C)NC(=O)[C@@H]1CCCC[C@H]1C[C@@H](O)[C@H](Cc1ccccc1)NC(=O)[C@H](CC(N)=O)NC(=O)c1cc(Cl)cc(Cl)c1` yielded a melting point of 220 to 226 °C. The compound `Cc1nnc(C=Cc2ccccc2OCC(O)CCl)s1` (stereo not drawn) returned a melting point of 168 to 170 °C. Consider `CS(=O)(=O)N1CCCn2c(nc3c(N)nc4cc(OCc5ccccc5)ccc4c32)C1`, for which the melting point fell in the range of 235 to 236 °C. `CCCNC(=O)C(Cc1ccc2c(c1)c(Cc1ccc(C(=O)O)cc1OC)cn2CCC)C(C)C` (stereo not drawn) came in with a melting point of 160 to 162 °C. The compound `Cc1ccc(C)n1C(C)c1ncccc1F` (stereo not drawn) gave a melting point of 82 to 84 °C. The value for `Cc1cccc(C(F)(F)C(F)(F)c2ccccc2)c1C` was 110 to 112 °C.

Compound `Cc1nc(-c2cccnc2)sc1-c1ccnc(Nc2cc(Cl)c(N3CCOCC3)c(Cl)c2)n1` gave a melting point of 276 to 278 °C.

`CC(=O)Nc1c(Cl)cnn(C)c1=O` showed a melting point of 147 to 148 °C. Compound `C(=C\c1ccoc1)/c1ccccc1` yielded a melting point of 96 °C. In the case of `COC(=O)CCc1ccc(OCc2nc(-c3ccccc3)c(-c3ccccc3)o2)cc1`, the melting point is 92 to 95 °C. As to `Cc1ccc(C(O)CN2CCNC2=S)cc1` (stereo not drawn), the melting point is 123 °C.

`CC(=O)c1cc(C)c(NC(=O)c2cc(C(F)(F)F)nn2-c2ncccc2Cl)c(C(=O)NC(C)C)c1`: the melting point was in the range of 135 to 137 °C. Regarding `C=C=Cc1c(C)nc2c(OCc3ccccc3C)cccn12`, the melting point was 88 to 89 °C. Compound `CCCCC/C(=C/C=C/C(=O)Oc1ccc([N+](=O)[O-])cc1)c1cccc(F)c1` gave a melting point of 50 to 51 °C. In turn, `Cn1ccc(=O)c(O)c1Cc1cccnc1` came in with a melting point of 209 to 212 °C. As to `O=C(O)c1cccc2c(-c3ccccc3)c([N+](=O)[O-])oc12`, the melting point was in the range of 271 to 272 °C. In turn, `[N-]=[N+]=NCCOc1ccc(/C(=C(\c2ccccc2)C(F)(F)F)c2ccccc2)cc1` yielded a melting point of 110 to 118 °C.

For `CC(C)(C)OC(=O)N[C@H](CNC(=O)Nc1ccccc1)Cc1ccccc1`, the melting point worked out at 154 °C. Compound `CS/C(=N\O)C(F)(F)F` came in with a melting point of 52 to 54 °C. With `O=C1c2ccccc2S(=O)(=O)N1CCCCOc1ccc(O)cc1`, the melting point was in the range of 107 to 109 °C. On to `CCN(CC)C1CCN(c2cccc(-c3cnn4c(N)c(-c5cccc(Cl)c5)c(C)nc34)c2)CC1`, for which the melting point was 163 to 168 °C. `Cc1nc(-c2ccc(C#N)cc2)sc1C(=O)N1CC(O)O[C@@](Cn2cncn2)(c2ccc(F)cc2F)[C@H]1C` (stereo partly drawn) returned a melting point of 225 to 228 °C. Compound `Cc1nc2c(C)nn(C)c2c(=O)[nH]1` displayed a melting point of 258 to 260 °C.

As for `COc1c(Br)cc(-c2c3ccccc3cc3sc4ccccc4c23)cc1Br`, the melting point fell in the range of 238 to 240 °C.

In the case of `O=C(O)c1ccccc1-c1cc(-c2ccc(Cl)cc2)on1`, the melting point lay in the range of 174 to 176 °C. The compound `CCOC(=O)C1=C(C)N=C(SCc2ccc(OC)cc2)N(C(=O)OCC)C1c1ccccc1SC` (stereo not drawn) displayed a melting point of 87 to 89 °C. With `CCOC(=O)c1cn(CC)c2nc(C=O)c(O)cc2c1=O`, the melting point was in the range of 243 to 245 °C. The value for `NS(=O)(=O)c1ccc(NC(=O)CNc2ccccc2)cc1C(F)(F)F` was 172 °C.

With `N#CN=C(Nc1ccc(C#N)cc1O)Nc1ccccc1Br`, the melting point lay within 175 to 176 °C. The value for `COC(=O)C(=O)c1cn2c3c(cccc13)CCC2` was 105 to 108 °C; that for `Cc1cccc(C(O)CSC(=S)Nc2ccc(Cl)cn2)c1` (stereo not drawn) was 122 °C. On to `CC(=O)NS(=O)(=O)c1ccc(-c2c(Cl)nc(C(F)(F)F)nc2-c2ccc(S(C)(=O)=O)cc2)cc1`, for which the melting point was 230 to 235 °C. The compound `Cc1ccc(S(=O)(=O)N2CCCC2CO)cc1` (stereo not drawn) showed a melting point of 90 to 91 °C. `CC(=O)Nc1nc(C)c(S(=O)(=O)N2CCC(O)C2)s1` (racemic): the melting point was found to be 241 °C. `Fc1ccc2[nH]cc(CCc3ccncc3)c2c1` yielded a melting point of 128 °C.

As for `CC(C)c1nc(CCCOc2ncccc2CC(=O)O)c(Cc2ccc(Cl)cc2Cl)s1`, the melting point was in the range of 106 to 107 °C.

`COc1ccccc1C(=O)c1cccc(Br)n1` displayed a melting point of 97 to 98 °C. Compound `COc1cc(C(C)C)ccc1C1(O)C(=O)c2ccc(N)c(N)c2C1=O` (stereo not drawn) showed a melting point of 272 to 274 °C. Regarding `CN(N)C1=NOCc2ccc(Cl)cc21`, the melting point was 124 to 125 °C.

Take `O=C(c1ccc(F)cc1)c1ccc(Br)cc1`: the melting point lay in the range of 106 to 107 °C.

With `Cc1ccc(-c2ccc(C(=O)c3ccccc3)cc2)cc1`, the melting point fell in the range of 124 to 125 °C. Turning to `FC(F)(F)c1n[nH]cc1-c1nc(Nc2ccccn2)cs1`, the melting point was in the range of 204 to 206 °C. In turn, `CNc1cncc(C(=O)O)c1` gave a melting point of 239 to 242 °C. The value for `NS(=O)(=O)c1ccc(Cl)c(NC(=O)c2cnn3c(C(F)F)cc(-c4ccc(C(F)(F)F)cc4)nc23)c1` was 286 °C; that for `CN1CCN(c2cc(Br)cc3c2c(=O)n(Cc2ccccc2Cl)c(=O)n3Cc2ccccc2)CC1` was 104 to 108 °C. The value for `CC1C(=O)Oc2c(Oc3ccccc3Cl)cccc21` (stereo not drawn) was 92 to 95 °C.

As for `CC(C)N(CCn1cc(C(=O)NCc2ccc(Cl)cc2)c(=O)c2cc(C#CCO)ccc21)C(C)C`, the melting point lay within 188 to 191 °C. Compound `COc1ccc(-c2cc(O)nc(Nc3ccc(OC)c(Cl)c3)n2)cc1` registered a melting point of 292 to 294 °C. In turn, `CN(C)CCCN=Cc1ccc2ccccc2c1` showed a melting point of 29 to 31 °C.

With `CC(=O)Oc1c(C)sc2ccc(C(F)(F)F)cc12`, the melting point was 59 to 60 °C. The compound `CC(=O)c1cc(Br)c(N)c(CN(C)C)c1` registered a melting point of 92 to 95 °C.

Compound `CCOC(=O)CCP(Br)(c1ccccc1)(c1ccccc1)c1ccccc1` returned a melting point of 150 °C. In turn, `CCOC(=O)CCc1cc(-c2cc3ccccc3c(=O)o2)ccc1OC` registered a melting point of 105 to 106 °C.

The compound `CC1(C)Oc2ccc(C#N)cc2[C@@H](NC(=NC#N)Oc2ccccc2)[C@@H]1O` (relative stereo) registered a melting point of 186 to 188 °C. The compound `c1ccc2c3c([nH]c2c1)CCC3` displayed a melting point of 135 °C. As to `CNc1nc(NC)nc(-c2ccc(-c3ccccc3)cc2)n1`, the melting point was 198 to 200 °C. Compound `CCC(=O)NS(=O)(=O)c1cccc(-c2cccc(-c3cc(-c4ccc(C(F)(F)F)cc4)cc(C)n3)n2)c1` had a melting point of 173 °C. `COC(=O)c1cc2cc(C)ccc2nn1` showed a melting point of 170 to 172 °C. `COc1ccc(CN2CCc3cc(O)ccc3C2)cc1` showed a melting point of 158 to 160 °C. The value for `c1ccc(CCCC2CCN(Cc3nc4ccccc4[nH]3)CC2)cc1` was 140 to 141 °C. Take `O=C(NC1CCc2c[nH]cc2C1)[C@@H]1CCCN1C(=O)[C@@H](CC1CCCCC1)NS(=O)(=O)Cc1ccccc1` (stereo partly drawn): the melting point lay in the range of 106 to 109 °C. The value for `O=C(O)Cc1nn(CC(=O)Nc2cc(C(F)(F)F)ccc2Br)c(=O)c2ccccc12` was 200 to 202 °C; that for `O=c1c(Br)c(OCc2ccccc2Cl)ccn1Cc1ccccc1` was 143 to 146 °C; that for `O=C(O)CCc1ccc2c(c1)oc1ccc(Cl)cc12` was 174 to 178 °C.

`CCCC(CCC)C(=O)NC(=O)C(N)c1ccccc1` (stereo not drawn) showed a melting point of 190 to 191 °C. In the case of `O=C1C(Cl)=C(Nc2ccc(S(=O)(=O)Nc3ccccc3)cc2)C(=O)c2ccccc21`, the melting point fell in the range of 220 to 223 °C. `CC1(C)CCc2c(-c3ccoc3)nc3sc4c(NCc5ccncc5)ncnc4c3c2C1` returned a melting point of 265 to 266 °C. Turning to `FC(F)(F)c1ccc(-c2ncn(CCCN3CCOCC3)c2-c2ccncc2)cc1`, the melting point was found to be 133 °C. Turning to `CCCc1nc(N2CCOCC2)c2cscc2n1`, the melting point was 102 to 105 °C. The value for `CC(C)c1c(Sc2cc(Cl)cc(Cl)c2)nc(COCCO)n1C` was 67 to 68 °C; that for `O=C(O)CCCNC(=O)c1ccccc1NC(=O)c1ccccc1[N+](=O)[O-]` was 142 to 144 °C. For the compound `CCOC(=O)c1csc(NC(=O)c2cccc(C#N)c2)n1`, the melting point was in the range of 203 to 204 °C. In turn, `NC(=O)c1c(Cl)c(Cl)c(Cl)c(Cl)c1C(=O)O` yielded a melting point of 113 to 114 °C. Compound `COc1ccc(C2=NN(C3CCN(C(=O)[C@H](C)NC(=O)NC(C)(C)C)CC3)C(=O)[C@@H]3CC=CC[C@H]23)cc1OC` gave a melting point of 153 to 154 °C. The compound `Nc1cc(-n2ncc(Cl)c(Cl)c2=O)c(F)cc1Cl` displayed a melting point of 186 °C. Next, `CN1CCN(c2c(F)c(F)c([N+](=O)[O-])c(NC3CC3)c2F)CC1`: 75 °C; `O=c1c(-c2cccc(F)c2)c(CNc2ncnc3[nH]cnc23)oc2ccccc12`: 211 to 214 °C; `Cc1c(-c2ccccc2)c(N2CC[C@H](N(C)C)C2)c2oc(-c3ccccc3[N+](=O)[O-])nc2c1C#N`: 139 to 142 °C.

The record behind these values is a melting point compilation (Tetko et al.; mined from patent text by program, amines drawn as free bases though some values may be those of a salt).
